Results published in patent publication US20100227935A1, “CLASS OF TERPENE-DERIVED COMPOUNDS HAVING AN ANTIBIOTIC ACTIVITY, COMPOSITIONS CONTAINING THE SAME AND USES THEREOF” (Centre National De La Recherche Scientifique, priority 2006, published 2010).

Tests used:
Format in all cases: cell-based
Staphylococcus aureus H7 = experiment: MIC / antibiotic susceptibility
Staphylococcus aureus H1 = experiment: MIC / antibiotic susceptibility
Staphylococcus aureus H9 = experiment: MIC / antibiotic susceptibility
[1] = tested on: Staphylococcus aureus H16
[2] = tested on: Staphylococcus aureus H18; experiment: MIC / antibiotic susceptibility
Staphylococcus aureus H4 = experiment: MIC / antibiotic susceptibility
Staphylococcus aureus H3 = experiment: MIC / antibiotic susceptibility
Note: key: R: strain resistant to antibiotic concerned; S: strain sensitive to antibiotic concerned; L strain with intermediate resistance to antibiotic concerned.

Row | Molecule | Susceptibility of strain to antibiotic (Staphylococcus aureus H7) | Susceptibility of strain to antibiotic (Staphylococcus aureus H1) | Susceptibility of strain to antibiotic (Staphylococcus aureus H9) | Susceptibility of strain to antibiotic [1] | Susceptibility of strain to antibiotic [2] | Susceptibility of strain to antibiotic (Staphylococcus aureus H4) | Susceptibility of strain to antibiotic (Staphylococcus aureus H3)
1 | NCC[C@H](O)C(=O)N[C@@H]1C[C@H](N)[C@@H](O[C@H]2O[C@H](CN)[C@@H](O)[C@H](O)[C@H]2O)[C@H](O)[C@H]1O[C@H]1O[C@H](CO)[C@@H](O)[C@H](N)[C@H]1O [Amikacin] | S | S | S | R | R | R | S
2 | CC1(C)S[C@@H]2[C@H](NC(=O)[C@H](N)c3ccc(O)cc3)C(=O)N2[C@H]1C(=O)O [Amoxicillin] | R | R | R | R | R | R | R
3 | Cc1nnc(SCC2=C(C(=O)O)N3C(=O)[C@@H](NC(=O)Cn4cnnn4)[C@H]3SC2)s1 [Cefazoline] | S | S | S | R | R | R | S
4 | C[C@H]1c2cccc(O)c2C(O)=C2C(=O)[C@]3(O)C(O)=C(C(N)=O)C(=O)[C@@H](N(C)C)[C@@H]3[C@@H](O)[C@@H]21 [Doxycyclin] | S | S | S | – | S | S | S
5 | CC[C@H]1OC(=O)[C@H](C)[C@@H](O[C@H]2C[C@@](C)(OC)[C@@H](O)[C@H](C)O2)[C@H](C)[C@@H](O[C@@H]2O[C@H](C)C[C@H](N(C)C)[C@H]2O)[C@](C)(O)C[C@@H](C)C(=O)[C@H](C)[C@@H](O)[C@]1(C)O [Erythromycin] | R | S | R | R | R | S | R
6 | C[C@@H]1O[C@@H]1P(=O)(O)O [Fosfomycin] | S | S | S | R | R | S | S
7 | CC(=O)O[C@H]1C[C@@]2(C)[C@@H](C[C@@H](O)[C@H]3[C@@]4(C)CC[C@@H](O)[C@@H](C)[C@@H]4CC[C@@]32C)/C1=C(\CCC=C(C)C)C(=O)O [Fusidic acid] | S | S | R | S | S | S | S
8 | CCn1cc(C(=O)O)c(=O)c2cc(F)c(N3CCNCC3)cc21 [Norfloxacin] | R | S | S | R | R | R | R
9 | CC1COc2c(N3CCN(C)CC3)c(F)cc3c(=O)c(C(=O)O)cn1c23 (stereo not drawn) [Ofloxacin] | R | S | S | R | R | R | R
10 | Cc1onc(-c2ccccc2)c1C(=O)N[C@@H]1C(=O)N2[C@@H]1SC(C)(C)[C@@H]2C(=O)O [Oxacillin] | S | S | S | R | R | R | S
11 | CC1(C)S[C@@H]2[C@H](NC(=O)Cc3ccccc3)C(=O)N2[C@H]1C(=O)O [Penicillin G] | R | R | R | R | R | R | R
12 | CCN1CCN(C(=O)N[C@@H](C(=O)N[C@@H]2C(=O)N3[C@@H]2SC(C)(C)[C@@H]3C(=O)O)c2ccccc2)C(=O)C1=O [Piperacillin] | R | R | R | R | R | R | R
13 | CN(C)[C@@H]1C(O)=C(C(N)=O)C(=O)[C@@]2(O)C(O)=C3C(=O)c4c(O)cccc4[C@@](C)(O)[C@H]3C[C@@H]12 [Tetracycline] | – | S | – | R | – | S | S
14 | Pristinamycin | S | S | S | – | S | S | S
15 | Teicoplanin | S | S | S | – | R | S | S
